Measurements: US8981111B2 (priority 2008, dated 2015)

Assay: log P (HPLC/MS data of the preparation examples)
Conditions: HCOOH

| Compound | log P(HCOOH) |
| --- | --- |
| 2-{6-[({[(1-methyl-1H-imidazol-5-yl)(3-thienyl)methylene]amino}oxy)-methyl]pyridin-2-yl}-1H-isoindole-1,3(2H)-dione [Example 491] | 1.73 |

Same assay, conditions: HCOOH (formic acid)

| Compound | chromatographic logP |
| --- | --- |
| Cc1nocc1C(=NO)c1cccs1 [N-hydroxy-1-(3-methyl-1,2-oxazol-4-yl)-1-(2-thienyl)methanimine] | 1.75 |

Same assay, conditions: HPLC (LC-MS) method [b]: pH 2.7, 0.1% formic acid in water and acetonitrile, linear gradient 10% to 95% acetonitrile; EEC directive 79/831 Annex V.A8

| Compound | log p |
| --- | --- |
| CCCCCC(=O)Nc1cccc(CON=C(c2ccsc2)c2cncn2C)n1 (single isomer, unassigned) [Example 427] | 1.99^[b] |
| CCCCCOC(=O)Nc1cccc(CON=C(c2ccsc2)c2cncn2C)n1 [Example 425] | 2.82^[b] |
| Cn1ncnc1C(=NOCc1cccc(N2C(=O)c3ccccc3C2=O)n1)c1ncc(C(F)(F)F)cc1Cl [Example 465] | 3.15^[b] |
| Cn1ncnc1C(=NOCc1csc(N)n1)c1ncc(C(F)(F)F)cc1Cl [Example 473] | 1.56^[b] |
| 2-{6-[({[(1-methyl-1H-imidazol-5-yl)(3-thienyl)methylene]amino}oxy)-methyl]pyridin-2-yl}-1H-isoindole-1,3(2H)-dione [Example 491] | 3.67^[b] |
| Cn1ncnc1C(=NOCc1cccc(N)n1)c1ncc(C(F)(F)F)cc1Cl [Example 466] | 1.3^[b] |

Same assay, conditions: LC-MS, method [b]: pH 2.7 with 0.1% formic acid in water and acetonitrile, linear gradient 10% to 95% acetonitrile

| Compound | log p |
| --- | --- |
| CC(C(=O)Nc1cccc(CON=C(c2ccccc2)c2nccn2C)n1)c1ccccc1 (stereo not shown) [Example 333] | 2.21^[b] |
| Cn1ncnc1C(=NOCc1cccc(NC(=O)CCc2ccc(Cl)cc2)n1)c1ccccc1 [Example 300] | 3.72^[b] |
| CCCCCC(=O)Nc1cccc(CON=C(c2ccccc2)c2cncn2C)n1 [Example 120] | 2.11^[b] |
| CC(C)CC(=O)Nc1cccc(CON=C(c2cccs2)c2nccn2C)n1 [Example 412] | 1.91^[b] |
| Cc1ccccc1C(=NOCc1cccc(N2C(=O)c3ccccc3C2=O)n1)c1ncnn1C [Example 9] | 2.78^[b] |
| Cn1ccnc1C(=NOCc1cccc(NC(=O)Cc2ccccc2)n1)c1ccccc1 [Example 32] | 2^[b] |
| COC(C(=O)Nc1cccc(CON=C(c2cccc(F)c2)c2nccn2C)n1)c1ccccc1 (stereo not shown) [Example 349] | 2.42^[b] |
| CCCCCOC(=O)Nc1cccc(CON=C(c2ccccc2)c2ocnc2C)n1 (single isomer, unassigned) [Example 319] | 4.54^[b] |
| Cn1ncnc1C(=NOCc1csc(NC(=O)CCc2ccccc2)n1)c1cccs1 [Example 403] | 3.09^[b] |
| Cn1ncnc1C(=NOCc1cccc(NC(=O)Cc2cccc(Cl)c2)n1)c1ccccc1 [Example 313] | 3.5^[b] |
| Cn1ncnc1C(=NOCc1cccc(NC(=O)Cc2cccs2)n1)c1ccccc1 [Example 311] | 2.98^[b] |
| Cc1ncoc1C(=NOCc1cccc(N2C(=O)c3ccccc3C2=O)n1)c1ccccc1 [Example 353] | 3.09^[b] |

Same assay, conditions: method [b]: LC-MS at pH 2.7, 0.1% formic acid in water / acetonitrile, linear gradient 10% to 95% acetonitrile

| Compound | log p |
| --- | --- |
| CCCC(=O)Nc1cccc(CON=C(c2ccccc2)c2cncn2C)n1 [Example 256] | 1.6^[b] |
| Cc1nnsc1C(=NOCc1cccc(NC(=O)CC(C)C)n1)c1ccccc1 [Example 218] | 3.96^[b] |
| Cc1nc(C(=NOCc2cccc(N3C(=O)c4ccccc4C3=O)n2)c2ccccc2)cs1 (single isomer, unassigned) [Example 168] | 3.27^[b] |
| Cn1ccnc1C(=NOCc1cccc(NC(=O)Cc2ccccc2Cl)n1)c1ccccc1 [Example 265] | 2.61^[b] |
| COc1ccc(CC(=O)Nc2cccc(CON=C(c3ccccc3)c3nccn3C)n2)cc1 [Example 266] | 2.33^[b] |
| Cc1nc(C(=NOCc2cccc(N)n2)c2ccccc2)cs1 (single isomer, unassigned) [Example 174] | 1.47^[b] |
| Cc1nnsc1C(=NOCc1cccc(NC(=O)Cc2ccccc2)n1)c1ccccc1 [Example 219] | 4.04^[b] |

Same assay, conditions: reversed phase HPLC column, pH 2.7

| Compound | chromatographic logP |
| --- | --- |
| Cn1cnnc1C(=NOCc1cccc(Br)n1)c1ccccc1 [Example 228, N-[(6-bromopyridin-2-yl)methoxy]-1-(4-methyl-4H-1,2,4-triazol-3-yl)-1-phenylmethanimine] | 2.28 |
